Measurements taken from publication PMC2868945 (Bioorganic & medicinal chemistry, 2010).
Values joined by “and” are separate entries in the source; they are usually repeats but may differ in a detail not shown here. Equal entries are not always repeated. “Also recorded” adds a separate entry of the source.

Legend:
[1] = molecular target: recombinant lumazine synthase of M. tuberculosis (Mycobacterium tuberculosis, UniProt P9WHE9); assay: Kinetic assay of lumazine synthase inhibitors; assay type: biochemical; details: for inhibitory activity against lumazine synthase (in words): M. tuberculosis LS; for Kcat (rate constant for ES ⇌ E + P) / Mechanism / Kis (inhibitor dissociation constant for ES + I ⇌ ESI): LS; for Kcat (rate constant for ES ⇌ E + P): fit parameter of the inhibitor's data set; for Mechanism: most likely inhibition model (DynaFit); for Kis (inhibitor dissociation constant for ES + I ⇌ ESI): pH 7.0, 27 °C, pyrimidinedione substrate varied
Sequence of recombinant lumazine synthase of M. tuberculosis (P9WHE9 whole entry): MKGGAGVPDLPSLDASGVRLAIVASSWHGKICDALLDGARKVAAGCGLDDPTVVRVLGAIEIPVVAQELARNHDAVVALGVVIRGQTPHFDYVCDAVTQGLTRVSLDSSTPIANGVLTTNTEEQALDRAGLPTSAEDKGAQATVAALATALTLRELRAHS

[2] = molecular target: recombinant riboflavin synthase of M. tuberculosis (Mycobacterium tuberculosis, UniProt P9WK35); assay: Kinetic assay of riboflavin synthase inhibitors; assay type: biochemical; details: for inhibitory activity against riboflavin synthase (in words): M. tuberculosis RS; for Kis (inhibitor dissociation constant for ES + I ⇌ ESI): pH 7.0, 27 °C; for Mechanism: most likely inhibition model (DynaFit)
Sequence of recombinant riboflavin synthase of M. tuberculosis (P9WK35 whole entry): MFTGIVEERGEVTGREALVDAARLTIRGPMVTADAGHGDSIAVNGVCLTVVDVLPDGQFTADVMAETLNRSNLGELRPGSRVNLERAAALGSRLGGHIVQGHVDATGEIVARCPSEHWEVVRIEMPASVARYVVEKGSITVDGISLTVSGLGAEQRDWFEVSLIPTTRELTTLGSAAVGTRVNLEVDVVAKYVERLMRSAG

[3] = molecular target: T1, M. tuberculosis lumazine synthase (Mycobacterium tuberculosis, UniProt P9WHE9); details: cited from earlier work
T1 sequence (P9WHE9 whole entry): as the sequence (P9WHE9 whole entry) above

[4] = molecular target: T1, M. tuberculosis lumazine synthase; assay: biochemical; assay type: binding; details: for binding enthalpy ΔH: 100 mM potassium phosphate buffer, pH 7.0, 30 °C, apparent; for entropy ΔS of binding: calculated from ΔG = ΔH − TΔS
[5] = molecular target: icosahedral lumazine synthase from Bacillus anthracis (Bacillus anthracis, UniProt Q81MB5); assay type: binding
Sequence of icosahedral lumazine synthase from Bacillus anthracis (Q81MB5 whole entry, looked up): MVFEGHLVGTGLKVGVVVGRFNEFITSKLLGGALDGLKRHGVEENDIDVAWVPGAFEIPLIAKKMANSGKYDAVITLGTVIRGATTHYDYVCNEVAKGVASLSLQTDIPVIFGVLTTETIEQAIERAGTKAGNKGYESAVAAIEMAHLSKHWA

[6] = molecular target: pentameric lumazine synthase from Schizosaccharomyces pombe (Schizosaccharomyces pombe, UniProt Q9UUB1); assay type: binding; details: same experimental limits as for the M. tuberculosis enzyme
Sequence of pentameric lumazine synthase from Schizosaccharomyces pombe (Q9UUB1 whole entry): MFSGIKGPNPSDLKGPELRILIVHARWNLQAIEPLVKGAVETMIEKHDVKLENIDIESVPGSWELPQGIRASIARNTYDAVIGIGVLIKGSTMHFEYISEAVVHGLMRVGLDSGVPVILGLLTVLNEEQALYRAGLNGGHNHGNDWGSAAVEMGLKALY

[7] = RS, fit parameter of the inhibitor's data set

Compound | inhibitory activity against lumazine synthase (in words) [1] | inhibitory activity against riboflavin synthase (in words) [2] | Kcat (rate constant for ES ⇌ E + P) [1] | Mechanism [1] | Kis (inhibitor dissociation constant for ES + I ⇌ ESI) [1] | Ks (substrate dissociation constant for E + S ⇌ ES) [2, 7] | Kis (inhibitor dissociation constant for ES + I ⇌ ESI) ([2]; RS) | further results
1,1-Difluoro-4-(2-oxo-1,2-dihydrobenzo[cd]indole-6-sulfonamido)butylphosphonic Acid [Compound 71] | inactive | inactive |  |  |  |  |  | 
1,1-Difluoro-4-(2-oxo-1,2-dihydrobenzo[cd]indole-6-sulfonamido)hexylphosphonic Acid [Compound 73] | inactive | inactive |  |  |  |  |  | 
1,1-Difluoro-4-(2-oxo-1,2-dihydrobenzo[cd]indole-6-sulfonamido)pentylphosphonic Acid [Compound 72] | poor inhibitory activity | inactive | 0.57 ± 0.01 m^−1 | Mixed | 518 µM and 518 ± 94 µM | 4.1 ± 0.3 µM | > 1000 µM | 
4-(2-Oxo-1,2-dihydrobenzo[cd]indole-6-sulfonamido)pentylphosphonic Acid [Compound 55] | absolutely no inhibitory activity |  |  |  |  |  |  | 
5-(2-Oxo-1,2-dihydrobenzo[cd]indole-6-sulfonamido)hexyl Dihydrogen Phosphate [Compound 40] |  | weak, uncompetitive inhibitors | 0.45 ± 0.01 m^−1 | Uncompetitive | 723 ± 91 µM | 9.8 ± 0.6 µM | 898 ± 187 µM | Kcat (rate constant for ES ⇌ E + P) [2, 7]: 0.56 ± 0.01 m^−1; Mechanism ([2]; RS): Uncompetitive
O=C(O)CNS(=O)(=O)c1ccc2c3c(cccc13)C(=O)N2 [Compound 9, 2-(2-oxo-1,2-dihydrobenzo[cd]indole-6-sulfonamido)acetic acid] | demonstrated inhibition |  |  |  | 58 µM |  |  | 
O=c1[nH]c(Cl)c(CCCCOP(=O)(O)O)c(=O)[nH]1 [Compound 11, 4-(6-chloro-2,4-dioxo-1,2,3,4-tetrahydropyrimidin-5-yl)butyl dihydrogen phosphate] |  |  |  |  |  |  |  | Ki ([3]; M. tuberculosis lumazine synthase): 0.88 µM; inhibition constant (in words) ([3]; lumazine synthase): nanomolar range
O=C1Nc2ccc(S(=O)(=O)NCCOP(=O)(O)O)c3cccc1c23 [Compound 26, 2-(2-Oxo-1,2-dihydrobenzo[cd]indole-6-sulfonamido)ethyl Dihydrogen Phosphate] |  |  | 0.41 ± 0.01 m^−1 | Partial | 125 ± 57 µM | 5.7 ± 0.04 µM | > 1000 µM | 
O=C1Nc2ccc(S(=O)(=O)NCCCOP(=O)(O)O)c3cccc1c23 [Compound 27, 3-(2-Oxo-1,2-dihydrobenzo[cd]indole-6-sulfonamido)propyl Dihydrogen Phosphate] |  |  | 0.45 ± 0.01 m^−1 | Mixed | 434 ± 115 µM | 5.6 ± 0.04 µM | > 1000 µM | Kd [4]: 112 µM; binding enthalpy ΔH ([4]; ITC): -5.2 ± 0.7 kcal/mol; entropy ΔS of binding ([4]; ITC, 30 °C): 0.98 cal·mol^−1·deg^−1
O=C1Nc2ccc(S(=O)(=O)NCCO)c3cccc1c23 [Compound 31, N-(2-Hydroxyethyl)-2-oxo-1,2-dihydrobenzo[cd]indole-6-sulfonamide] | totally inactive |  |  |  |  |  |  | 
CCC(O)CNS(=O)(=O)c1ccc2c3c(cccc13)C(=O)N2 (stereo not drawn) [Compound 32, N-(2-Hydroxybutyl)-2-oxo-1,2-dihydrobenzo[cd]indole-6-sulfonamide] | totally inactive |  |  |  |  |  |  | 
O=C1Nc2ccc(S(=O)(=O)NCCCCCO)c3cccc1c23 [Compound 33, N-(5-Hydroxypentyl)-2-oxo-1,2-dihydrobenzo[cd]indole-6-sulfonamide] | totally inactive |  |  |  |  |  |  | 
O=C1Nc2ccc(S(=O)(=O)NCCCCOP(=O)(O)O)c3cccc1c23 [Compound 38, 4-(2-Oxo-1,2-dihydrobenzo[cd]indole-6-sulfonamido)butyl Dihydrogen Phosphate] |  |  | 0.44 ± 0.01 m^−1 | Mixed | 572 ± 210 µM | 6.5 ± 0.3 µM | > 1000 µM | Kd [4]: 130 µM; binding enthalpy ΔH ([4]; ITC): -7.6 ± 1.3 kcal/mol; entropy ΔS of binding ([4]; ITC, 30 °C): −7.2 cal·mol^−1·deg^−1; stoichiometry (n) of the binding reaction ([4]; ITC, 30 °C, inhibitor molecules per active site): 1; binding detected by titration calorimetry (in words) [5]: do not indicate a binding reaction; also recorded: did not detect binding; binding detected by titration calorimetry (in words) [6]: do not indicate a binding reaction; also recorded: did not detect binding
O=C1Nc2ccc(S(=O)(=O)NCCCCCOP(=O)(O)O)c3cccc1c23 [Compound 39, 5-(2-oxo-1,2-dihydrobenzo[cd]indole-6-sulfonamido)pentyl Dihydrogen Phosphate] |  | weak, uncompetitive inhibitors | 0.45 ± 0.01 m^−1 | Uncompetitive | 563 ± 56 µM | 9.8 ± 0.6 µM | 971 ± 179 µM | Mechanism ([2]; RS): Uncompetitive
O=C1Nc2ccc(S(=O)(=O)NCCCCP(=O)(O)O)c3cccc1c23 [Compound 54, 4-(2-Oxo-1,2-dihydrobenzo[cd]indole-6-sulfonamido)butylphosphonic Acid] | absolutely no inhibitory activity |  |  |  |  |  |  | 
CCOC(=O)C(=O)Nc1c(Cl)[nH]c(=O)[nH]c1=O [Compound 77, Ethyl 2-(6-Chloro-2,4,dioxo-1,2,3,4-tetrahydropyrimidin-5-ylamino)-2-oxoethanoate] |  | weak, uncompetitive inhibitors | 0.61 ± 0.02 m^−1 | Mixed | > 1000 µM | 7.8 ± 0.3 µM | 897 ± 104 µM | Mechanism ([2]; RS): Uncompetitive
